According to article PMC8775902, “Bifunctional Opioid/Melanocortin Peptidomimetics for Use in Neuropathic Pain: Variation in the Type and Length of the Linker Connecting the Two Pharmacophores” (International Journal of Molecular Sciences, 2022):
“Also recorded” adds a separate entry of the source. Like-named read-outs stand apart in the source and are kept apart here. Where a SMILES comes first, the peptide text is derived from it. Bridges are numbered along the chain shown (N, C = ends). [ ]: non-standard residue; d: D form. d2Nal = N[C@H](Cc1ccc2ccccc2c1)C(=O)O; Nle = CCCC[C@H](N)C(=O)O; Ahx = NCCCCCC(=O)O; βAla = NCCC(=O)O

Legend:
[1] = target: T1, delta opioid receptor (DOR) (Rattus norvegicus, UniProt P33533); test: Competitive radioligand binding, [3H][Ile5,6]DELT II, rat brain homogenate; details: three determinations in duplicate, read-out: Affinity DOR IC50 ± SD
T1 construct: The determinations for opioid receptors were performed in rat brain homogenates; from tissue; host or cells: rat brain homogenate (membrane fraction)
Description: (§1) The determinations for opioid receptors were performed in rat brain homogenates by competitive displacement using selective radioligands, namely [^3H]DAMGO (a radioligand specific for MOR) and [^3H][Ile^5,6]DELT II (a radioligand specific for DOR). The measurement for melanocortin receptor MC4 was performed with the use of HEK293 MC4R cells and [^125I]-NDP-α-MSH radioligand.
(§2) The binding affinity of peptidomimetics 1–9 and reference compoundsTyr-D-Ala-Gly-Phe-NH2 for MOR and DOR was determined in competitive radioligand binding assays according to the method previously described. The specific radioligands were [^3H]DAMGO (DAMGO (a specific MOR ligand) and [^3H][Ile^5,6]DELT II]) (a specific DOR ligand). Membrane fractions of rat brain homogenate were incubated at 25 °C for 60 min in the presence of radioligands (0.5 nM) specific for each receptor and the increasing concentrations of the tested compounds. For measuring non-specific binding, 10 μM naloxone was used as the competitor for opioid receptors. The reactions were carried out in assay buffer containing Tris-HCl (pH 7.4) with an addition of bovine serum albumin (BSA) and protease inhibitors (bacitracin, bestatin, captopril). After the incubation, the binding reactions were terminated by rapid filtration with M-24 Cell Harvester (Brandel/USA) through GF/B Whatman glass fiber strips (pre-soaked with 0.5% PEI in order to minimize non-specific binding). Radioactivity retained on the filters was measured in MicroBeta LS, Trilux scintillation counter (PerkinElmer, USA). The experiments were repeated at least three times in duplicate. The IC50 value for each compound was determined using GraphPad Prism.

[2] = target: melanocortin-4 receptor (MC4R) (Homo sapiens, UniProt P32245); test: Radioligand competitive binding, [125I]-NDP-α-MSH, HEK293 MC4R cells; details: for IC50: [125I]-NDP-α-MSH, HEK293 MC4R cells, average of two assays in duplicates, read-out: Affinity MC4R IC50 ± SD; for Selectivity MC4R/DOR: calculated as ratio of IC50 values
Description: as §1
HEK293 MC4R were cultured in Earle’s Minimum Essential Medium (EMEM) supplemented with 10% heat inactivated fetal bovine serum (FBS). Cultures were grown under the humidified atmosphere of 5% CO2 in the air at 37 °C, up to 80% settlement of the bottle surface.
HEK293 MC4R cells were seeded around 10^5 cell/well in a 24-well plates two days before the experiment. Just before experiment, cells were washed twice with 0.5 mL of binding buffer (EMEM supplemented with 25 mM HEPES buffer, 0.2% bovine serum albumin, 1 mM 1,10-phenanthroline, 0.5 mg/L leupeptin and 200 mg/L bacitracin). […] The competition between ligands was ended by gentle withdrawal of medium solution, followed by cell washing with 2 × 0.5 mL of cold binding buffer, while the attached cells were lysed using 2 × 0.5 mL of 1 M NaOH. The radioactivity of collected solutions were measured on WIZARD^2 2480 Automatic Gamma Counter (PerkinElmer, Boston, MA, USA) in measurements with decay correlation protocol. All binding parameters were determined using GraphPad Prism Software (GraphPad Software Inc., San Diego, CA, USA). The competition assay determination was based on the normalized dose response in function of logarithm of inhibitor concentration (with variable slope) equation. All the EC50 values were calculated as an average of two separate competition assays performed in duplicates.

mu opioid receptor (MOR) = target: T2, mu opioid receptor (MOR) (Rattus norvegicus, UniProt P33535); test: Competitive radioligand binding, [3H]DAMGO, rat brain homogenate; details: for IC50: [3H]DAMGO, rat brain homogenate, three determinations in duplicate, read-out: Affinity MOR IC50 ± SD; for Selectivity MOR/DOR: calculated as ratio of IC50 values
T2 construct: The determinations for opioid receptors were performed in rat brain homogenates; from tissue; host or cells: rat brain homogenate (membrane fraction)
Description: as §1, §2

[3] = Experimental lipophilicity (P, log P); format: physicochemical
Excerpt: We also studied experimentally the lipophilicity of the compounds 1–4. The obtained logP values vary only moderately (in the range −2.30 to −2.92, Table S2) and cannot account for the large differences in the antinociceptive activity. It seems then that the lipophilicity is not a factor responsible for the in vivo activity differences.

[4] = test system: mice subjected to CCI (neuropathic pain); test: Von Frey test in CCI-exposed mice (neuropathic pain, allodynia); format: in vivo; details: for ED50 (CL) Mice Subjected to CCI (Neuropathic Pain) Von Frey (Allodynia): 7–14 days after CCI, i.t. administration, 95% confidence limits
Description: (§3) The antinociceptive properties of the peptidomimetics 1–9 were assessed in two types of pain models. The first one included naive mice (acute pain), and the second one included mice exposed to chronic constriction injury (CCI, neuropathic pain model). In the latter of the models, two types of stimuli (mechanical pressure and low temperature) were considered. […] In naive mice, the tail-flick test was used to evaluate the analgesic effect (acute pain model). In CCI-exposed mice, hypersensitivity to mechanical and thermal stimuli was measured by von Frey and cold-plate tests, respectively.
(§4) The surgical procedure was performed according to Bennett and Xie. Under isoflurane anesthesia, an incision was made below the mouse’s right hipbone, and the sciatic nerve was exposed. Three ligatures with 4/0 silk thread were made around the nerve distal to the sciatic notch with 1 mm spacing, until a brief twitch in the respective hind limb was observed. After 7 days of recovery, mice were tested to assess the development of neuropathic pain behavior. […] Main experiments were conducted on days 7–14 after CCI surgical procedure.
Mechanical sensitivity to non-noxious stimuli was measured by applying a set of calibrated nylon monofilaments in increasing value (0.6–6 g; Stoelting, Wood Dale, IL, USA) on a tested hind paw plantar surface, until a behavioral response was observed. Response considered as pain behavior included rapid paw withdrawal, shaking, and licking. In the von Frey test, results are expressed as pressure (g) applied with a calibrated plastic filament to the midplantar surface of the mouse’s injured hind paw (cut-off: 6 g), which elicited a foot withdrawal response.
(§5) The behavioral data are presented as the percentage of the maximal possible antinociceptive effect (% MPE ± SEM), which was calculated according to the following equation: % MPE = [(TL − BL)/(CUT-OFF − BL)] × 100%, where BL is the baseline latency, and TL is the latency obtained after drug injection. The results of the experiments were statistically evaluated using one-way analysis of variance (ANOVA). The differences between the treatment groups throughout the study were further analyzed with Bonferroni post hoc tests. The Litchefield and Wilcoxon method was used to calculate the ED50 value (a dose necessary to produce a 50% response) with 95% confidence limits on quantal data.

[5] = test system: mice subjected to CCI (neuropathic pain); test: Cold plate test in CCI-exposed mice (neuropathic pain, hyperalgesia); format: in vivo; details: 7–14 days after CCI, i.t. administration, 95% confidence limits
Description: as §3, §4
Sensitivity to noxious thermal stimuli was assessed with usage of Cold/Hot Plate Analgesia Meter, (Ugo Basile, Comerio, Italy). The temperature of the plate was kept at 2 °C, and the cut-off latency was 30 s. The mice were placed on the cold plate, and the time until the hind paw was lifted was recorded, which was considered as a reaction to noxious cold stimulus.
as §5

naive mice (acute pain) = test: Tail-flick test in naive mice (acute pain model); format: in vivo; details: for ED50 (CL) Naive Mice (Acute Pain) Tail-Flick: i.t. administration, 95% confidence limits; for analgesic effect in naive mice (acute pain), in words / ED50 Naive Mice (Acute Pain) Tail-Flick, class symbol: i.t.
Description: as §3
The tail-flick test was performed with use of Tail-Flick Analgesic Meter (Ugo Basile, Comerio, Italy) to evaluate the pain threshold to a thermal stimulus. During the procedure, an animal was placed on the apparatus surface and gently held by the experimenter. A beam of light was focused on a dorsal tail surface, approximately at 1 cm from the tail tip. When the animal flicked its tail, the timer stopped, and the recorded time (latency) was measured. The cut-off time to protect tissue damage was 9 s.
as §5

T2 sequence (P33535 whole entry): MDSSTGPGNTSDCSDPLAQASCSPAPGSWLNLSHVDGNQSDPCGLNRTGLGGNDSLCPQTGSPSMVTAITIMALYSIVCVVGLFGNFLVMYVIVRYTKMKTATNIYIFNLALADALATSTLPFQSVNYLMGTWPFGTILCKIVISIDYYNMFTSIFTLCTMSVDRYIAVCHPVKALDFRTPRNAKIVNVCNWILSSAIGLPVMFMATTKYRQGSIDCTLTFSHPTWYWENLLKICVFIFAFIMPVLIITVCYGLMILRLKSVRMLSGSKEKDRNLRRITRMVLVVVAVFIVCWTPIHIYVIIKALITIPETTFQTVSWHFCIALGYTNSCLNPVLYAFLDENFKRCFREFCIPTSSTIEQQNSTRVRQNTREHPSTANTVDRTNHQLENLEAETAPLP
Chain of melanocortin-4 receptor (MC4R) (P32245 whole entry): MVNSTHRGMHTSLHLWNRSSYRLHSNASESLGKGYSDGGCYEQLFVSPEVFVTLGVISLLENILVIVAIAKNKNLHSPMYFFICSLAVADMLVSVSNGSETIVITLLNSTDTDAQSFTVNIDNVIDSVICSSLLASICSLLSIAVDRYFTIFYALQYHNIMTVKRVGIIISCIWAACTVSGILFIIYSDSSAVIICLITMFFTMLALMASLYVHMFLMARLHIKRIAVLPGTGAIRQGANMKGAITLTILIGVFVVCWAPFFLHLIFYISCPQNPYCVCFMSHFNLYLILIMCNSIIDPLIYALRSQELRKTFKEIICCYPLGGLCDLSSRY
T1 sequence (P33533 whole entry): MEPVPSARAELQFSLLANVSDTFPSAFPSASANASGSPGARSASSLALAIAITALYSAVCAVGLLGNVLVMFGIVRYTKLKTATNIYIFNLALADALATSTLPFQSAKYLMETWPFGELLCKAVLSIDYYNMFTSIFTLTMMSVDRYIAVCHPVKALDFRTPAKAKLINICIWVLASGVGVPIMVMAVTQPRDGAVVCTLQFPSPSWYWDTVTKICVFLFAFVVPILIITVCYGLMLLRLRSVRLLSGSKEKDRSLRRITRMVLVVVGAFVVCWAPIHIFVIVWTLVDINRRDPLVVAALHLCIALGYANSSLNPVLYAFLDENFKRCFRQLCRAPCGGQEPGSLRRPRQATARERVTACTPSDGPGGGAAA

Compound | IC50 [1] [nM] | IC50 [2] [nM] | Selectivity MC4R/DOR [2] | IC50 (mu opioid receptor (MOR)) [nM] | Selectivity MOR/DOR (mu opioid receptor (MOR)) | logP ([3]; read-out: Lipophilicity Log P) | logP ([3]; read-out: Lipophilicity P) | ED50 (CL) Mice Subjected to CCI (Neuropathic Pain) Von Frey (Allodynia) [4] | ED50 (CL) Mice Subjected to CCI (Neuropathic Pain) Cold Plate (Hyperalgesia) [5] | ED50 (CL) Naive Mice (Acute Pain) Tail-Flick (naive mice (acute pain)) | analgesic effect in naive mice (acute pain), in words (naive mice (acute pain)) | analgesic effect in CCI-exposed mice, in words ([4]; CCI mice, von Frey and cold plate tests, i.t.) | ED50 Naive Mice (Acute Pain) Tail-Flick, class symbol (naive mice (acute pain))
CCCC[C@H](NC(=O)[C@@H](C)NC(=O)[C@H](Cc1ccccc1)NC(=O)CNC(=O)[C@@H](C)NC(=O)[C@@H](N)Cc1ccc(O)cc1)C(=O)N[C@H]1CC(=O)NCCCC[C@@H](C(N)=O)NC(=O)[C@H](Cc2c[nH]c3ccccc23)NC(=O)[C@H](CCCNC(=N)N)NC(=O)[C@@H](Cc2ccc3ccccc3c2)NC(=O)[C@H](Cc2c[nH]cn2)NC1=O [Compound 1, ENK-D-Ala-SHU] (H-Y[dA]GF[dA][Nle]DH[d2Nal]RWK-NH2; lactam 7-12) | 14.5 ± 1.91 | 0.07 ± 0.01 | 207 | 69.6 ± 18.7 | 0.2 | -2.3 ± 0.02 | -2.3 |  |  |  |  |  | 
CCCC[C@H](NC(=O)CCNC(=O)[C@H](Cc1ccccc1)NC(=O)CNC(=O)[C@@H](C)NC(=O)[C@@H](N)Cc1ccc(O)cc1)C(=O)N[C@H]1CC(=O)NCCCC[C@@H](C(N)=O)NC(=O)[C@H](Cc2c[nH]c3ccccc23)NC(=O)[C@H](CCCNC(=N)N)NC(=O)[C@@H](Cc2ccc3ccccc3c2)NC(=O)[C@H](Cc2c[nH]cn2)NC1=O [Compound 2, ENK-β-Ala-SHU] (H-Y[dA]GF[βAla][Nle]DH[d2Nal]RWK-NH2; lactam 7-12) | 22.8 ± 7.49 | 0.12 ± 0.01 | 190 | 104 ± 29.1 | 0.2 | -2.33 ± 0.02 | -2.33 | 0.04 (0.03–0.68) nmol | 142 (31–654) nmol | 58.8 (27–128) nmol |  |  | 
CCCC[C@H](NC(=O)CCCCCNC(=O)[C@H](Cc1ccccc1)NC(=O)CNC(=O)[C@@H](C)NC(=O)[C@@H](N)Cc1ccc(O)cc1)C(=O)N[C@H]1CC(=O)NCCCC[C@@H](C(N)=O)NC(=O)[C@H](Cc2c[nH]c3ccccc23)NC(=O)[C@H](CCCNC(=N)N)NC(=O)[C@@H](Cc2ccc3ccccc3c2)NC(=O)[C@H](Cc2c[nH]cn2)NC1=O [Compound 3, ENK-Ahx-SHU] (H-Y[dA]GF[Ahx][Nle]DH[d2Nal]RWK-NH2; lactam 7-12) | 45.4 ± 32.3 | 1.83 ± 0.81 | 25 | 64 ± 34.6 | 0.7 | -2.43 ± 0.01 | -2.43 | 0.0002 (0.00005–0.001) nmol |  |  |  |  | 
CCCC[C@H](NC(=O)CCCCCNC(=O)CCCCCNC(=O)[C@H](Cc1ccccc1)NC(=O)CNC(=O)[C@@H](C)NC(=O)[C@@H](N)Cc1ccc(O)cc1)C(=O)N[C@H]1CC(=O)NCCCC[C@@H](C(N)=O)NC(=O)[C@H](Cc2c[nH]c3ccccc23)NC(=O)[C@H](CCCNC(=N)N)NC(=O)[C@@H](Cc2ccc3ccccc3c2)NC(=O)[C@H](Cc2c[nH]cn2)NC1=O [Compound 4, ENK-(Ahx)2-SHU] (H-Y[dA]GF[Ahx][Ahx][Nle]DH[d2Nal]RWK-NH2; lactam 8-13) | 22.3 ± 12.7 | 0.5 ± 0.16 | 45 | 5.47 ± 1.38 | 4.1 | -2.92 ± 0.02 | -2.92 | 0.01 (0.00002–7.8) nmol | 0.1 (0.004–3.4) nmol |  |  |  | 
ENK-4AMB-SHU [Compound 5] |  |  |  |  |  |  |  | 0.02 (0.005–0.5) nmol | 0.16 (0.1–0.2) nmol |  | lack of analgesic effect |  | 
ENK-4APhAc-SHU [Compound 6] |  |  |  |  |  |  |  | 0.02 (0.0002–1.03) nmol | 0.02 (0.0005–1.2) nmol | 42 (21–85) nmol | some analgesic activity |  | 
ENK-(Pro-Gly)2-SHU [Compound 8] |  |  |  |  |  |  |  |  |  | 5 (0.4–60.3) nmol |  | any analgesic effect was not observed; also recorded: very little if any activity | 
ENK-Pro-Gly-SHU [Compound 7] |  |  |  |  |  |  |  | 0.4 (0.3–0.6) nmol | 0.16 (0.07–0.34) nmol |  | impossible to calculate ED50 due to weak analgesic effect and poor dose dependency |  | # (weak analgesic effects, poor dose dependency, ED50 cannot be calculated)
[Dmt^1]ENK-Ahx-SHU [Compound 9] |  |  |  |  |  |  |  | 0.003 (0.000003–3.45) nmol | 0.009 (0.005–0.01) nmol |  | impossible to calculate ED50 due to weak analgesic effect and poor dose dependency |  | # (weak analgesic effects, poor dose dependency, ED50 cannot be calculated)
